Data taken from patent publication US12465610B2, “Compounds and methods for the treatment of PKR-associated diseases” (Board of Regents, The University of Texas System, priority 2019, dated 2025).

Columns and labels:
[1] = system: p-4EBP1, eEF2K, GSK3ab, IRS1 and Caveolin; test: RPPA assay of 156 proteins; type: cell-based, human; settings: H1299 and A549 cells, 72 hours; Pac 1 5 and 10 μM, Pac 2 10 μM
Experimental: The translation regulator eukaryotic […] 4EBP1 is phosphorylated by and is a substrate of PIM3 and PIM1. To further determine whether treatment with Pac 1 affects PIM3/1 downstream targets, the expression of 156 proteins in H1299 and A549 cells was analyzed after treatment with Pac 1 or Pac 2 using an RPPA assay. […] Others reported cross-talk of PP2A with PKR and 4EBP1 protein in cancer cells.

PI4K2A kinase = PI4K2A kinase (Homo sapiens, UniProt Q9BTU6); test: ADP-Glo kinase assay, high-throughput enzymatic screening (Reaction Biology)
Chain of PI4K2A kinase (Q9BTU6 whole entry): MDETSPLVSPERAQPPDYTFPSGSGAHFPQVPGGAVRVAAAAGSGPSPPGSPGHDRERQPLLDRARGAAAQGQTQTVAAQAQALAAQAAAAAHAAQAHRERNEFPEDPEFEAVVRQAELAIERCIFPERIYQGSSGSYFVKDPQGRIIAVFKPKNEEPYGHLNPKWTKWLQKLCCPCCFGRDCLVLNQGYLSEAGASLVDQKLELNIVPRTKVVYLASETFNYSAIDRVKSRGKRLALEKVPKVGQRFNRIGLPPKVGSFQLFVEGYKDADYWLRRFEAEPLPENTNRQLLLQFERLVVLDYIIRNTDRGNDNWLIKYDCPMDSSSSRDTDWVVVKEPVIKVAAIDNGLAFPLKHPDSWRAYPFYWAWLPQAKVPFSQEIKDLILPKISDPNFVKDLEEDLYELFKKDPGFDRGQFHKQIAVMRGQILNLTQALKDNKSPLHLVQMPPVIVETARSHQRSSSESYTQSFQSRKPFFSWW

PKR and p-PKR = test: Western blot of PKR and p-PKR protein expression; type: cell-based, human
PIM3 = PIM3 (Homo sapiens, UniProt Q86V86); test: High-throughput enzymatic screening; type: biochemical
[2] = system: lysosomes and MVBs/exosomes; test: Transmission electron microscopy (TEM) of treated cells; type: cell-based, human
[3] = system: acidic vesicular organelles (lysosomes); test: LysoTracker Red staining; type: cell-based, human; settings: HeLa, H1299, and MDA-MB-231 cells, 5 μM, 72 hours
From the text: Western blotting was next used to evaluate proteins known to be involved in AP-1/2/3 complexes in lung (H1299) and breast (MDA-MB-231) cancer cells after treatment with Pac 1 or Pac 2. […] AP-1 and AP-2 mediate protein sorting in the endosome, trans-Golgi network, and plasma membrane. […] The impact of Pac 1 was then investigated on lysosome function by staining cells with the acidophilic dye LysoTracker Red.
LysoTracker red staining, confocal microscopy, and tem: The acidophilic dye LysoTracker Red stains lysosomes. Cancer cells (1×10^5 cells/well) were grown on two-well chamber slides (Becton Dickinson Labware, Bedford, MA) to 70% confluence and then treated with PKR siRNA or control siRNA. Forty-eight hours later (when cells had grown to 70-80% confluence), the medium was replaced with medium containing 75 nM LysoTracker Red. The cells were incubated with LysoTracker Red for 1 hour and then rinsed one time with 1 mL of PBS. The cells were kept in PBS for microscopic imaging.

p-4EBP1 (T70), PP2A = test: Western blot of p-4EBP1 and p-PP2Ac; type: cell-based, human; settings: H1299 and A549 cells
[4] = molecular target: PKR coimmunoprecipitated with PI4K2A (Homo sapiens, UniProt Q9BTU6); type: cell-based
Chain of PKR coimmunoprecipitated with PI4K2A (Q9BTU6 whole entry, looked up): as the sequence (Q9BTU6 whole entry) above

PI3Ka = PI3Ka (Homo sapiens, UniProt P42336); test: ADP-Glo kinase assay, high-throughput enzymatic screening (Reaction Biology); type: biochemical
Chain of PI3Ka (P42336 whole entry): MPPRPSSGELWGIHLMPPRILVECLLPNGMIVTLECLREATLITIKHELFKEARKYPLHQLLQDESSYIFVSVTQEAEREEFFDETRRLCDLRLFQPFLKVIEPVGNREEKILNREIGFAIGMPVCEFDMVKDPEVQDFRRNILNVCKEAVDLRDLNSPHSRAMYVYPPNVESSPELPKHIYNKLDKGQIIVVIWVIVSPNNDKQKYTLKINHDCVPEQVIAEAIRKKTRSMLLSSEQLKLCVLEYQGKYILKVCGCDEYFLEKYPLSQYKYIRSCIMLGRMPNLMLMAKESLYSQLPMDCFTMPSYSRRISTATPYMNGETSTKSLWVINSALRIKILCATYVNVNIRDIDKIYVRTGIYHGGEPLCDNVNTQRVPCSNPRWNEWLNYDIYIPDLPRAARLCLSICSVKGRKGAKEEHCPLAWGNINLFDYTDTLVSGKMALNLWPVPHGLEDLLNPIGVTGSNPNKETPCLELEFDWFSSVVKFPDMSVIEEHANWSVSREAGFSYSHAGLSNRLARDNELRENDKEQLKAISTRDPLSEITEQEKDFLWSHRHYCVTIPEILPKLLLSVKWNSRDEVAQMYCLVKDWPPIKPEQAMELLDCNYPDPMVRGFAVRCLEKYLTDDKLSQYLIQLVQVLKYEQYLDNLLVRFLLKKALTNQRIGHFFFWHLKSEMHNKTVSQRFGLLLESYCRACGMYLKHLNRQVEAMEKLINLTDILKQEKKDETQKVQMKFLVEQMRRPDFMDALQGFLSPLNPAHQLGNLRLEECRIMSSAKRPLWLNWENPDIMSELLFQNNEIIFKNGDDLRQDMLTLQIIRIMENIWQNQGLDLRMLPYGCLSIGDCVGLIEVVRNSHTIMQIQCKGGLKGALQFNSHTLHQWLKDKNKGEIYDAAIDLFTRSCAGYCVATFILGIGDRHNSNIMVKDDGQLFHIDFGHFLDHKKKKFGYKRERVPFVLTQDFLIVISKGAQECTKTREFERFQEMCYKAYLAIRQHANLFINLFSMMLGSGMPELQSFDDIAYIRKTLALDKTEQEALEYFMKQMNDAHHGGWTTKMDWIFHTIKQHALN
Chain of PI3Ka (P27986 whole entry partner): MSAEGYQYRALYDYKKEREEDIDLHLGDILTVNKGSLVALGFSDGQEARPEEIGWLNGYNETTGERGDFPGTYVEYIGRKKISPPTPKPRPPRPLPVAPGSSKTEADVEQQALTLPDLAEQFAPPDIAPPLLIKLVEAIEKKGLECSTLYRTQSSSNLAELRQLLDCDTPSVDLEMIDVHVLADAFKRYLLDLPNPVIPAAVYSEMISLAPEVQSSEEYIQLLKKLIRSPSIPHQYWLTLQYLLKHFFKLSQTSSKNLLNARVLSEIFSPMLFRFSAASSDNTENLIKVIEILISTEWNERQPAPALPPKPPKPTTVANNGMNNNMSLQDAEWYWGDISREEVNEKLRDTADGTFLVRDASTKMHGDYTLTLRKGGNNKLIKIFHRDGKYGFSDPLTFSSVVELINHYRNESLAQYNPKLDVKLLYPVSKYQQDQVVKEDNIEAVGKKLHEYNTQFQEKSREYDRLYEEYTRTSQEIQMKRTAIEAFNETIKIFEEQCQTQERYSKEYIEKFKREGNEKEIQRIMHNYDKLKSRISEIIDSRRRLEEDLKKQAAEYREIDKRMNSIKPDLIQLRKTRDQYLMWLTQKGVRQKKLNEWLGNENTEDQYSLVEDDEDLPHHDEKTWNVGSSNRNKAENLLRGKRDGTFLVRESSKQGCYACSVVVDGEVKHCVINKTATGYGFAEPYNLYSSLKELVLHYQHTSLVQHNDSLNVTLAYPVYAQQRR

HeLa cells = test: Microscopic analysis of morphologic changes; type: cell-based, human
From the text: Anticancer effects of PKR-targeting compounds depend on PKR expression status: To identify compounds that can target lysosomes in PKR-positive cells or MVBs/exosomes in PKR-negative cells, the 10,000-compound ChemBridge library was screened for compounds with different effects on the growth of HeLa and HeLaPKRkd cells. […] SRB assays were next used to determine cell viability after treatment with Pac 1 or Pac 2.
Identification of PKR-associated compounds and cytotoxicity studies: The library of 10,000 compounds was screened for those with different effects on the growth of HeLa and HeLaPKRkd cells. For this screening, both HeLa and HeLaPKRkd cells were seeded in 96-well plates in parallel and treated with each compound at a final concentration of 5 μg/mL. Cells treated with dimethyl sulfoxide (final concentration, 1%) were used as controls. Treated cells were observed under a microscope to detect morphologic changes, and their viability was determined using SRB assays 2 and 3 days after treatment. The compounds initially observed to have different effects on HeLa and HeLaPKRkd cells were subjected to two confirmatory screenings.

PI3Kb = PI3Kb (Homo sapiens, UniProt P42338); test: ADP-Glo kinase assay, high-throughput enzymatic screening (Reaction Biology); type: biochemical
Chain of PI3Kb (P42338 whole entry): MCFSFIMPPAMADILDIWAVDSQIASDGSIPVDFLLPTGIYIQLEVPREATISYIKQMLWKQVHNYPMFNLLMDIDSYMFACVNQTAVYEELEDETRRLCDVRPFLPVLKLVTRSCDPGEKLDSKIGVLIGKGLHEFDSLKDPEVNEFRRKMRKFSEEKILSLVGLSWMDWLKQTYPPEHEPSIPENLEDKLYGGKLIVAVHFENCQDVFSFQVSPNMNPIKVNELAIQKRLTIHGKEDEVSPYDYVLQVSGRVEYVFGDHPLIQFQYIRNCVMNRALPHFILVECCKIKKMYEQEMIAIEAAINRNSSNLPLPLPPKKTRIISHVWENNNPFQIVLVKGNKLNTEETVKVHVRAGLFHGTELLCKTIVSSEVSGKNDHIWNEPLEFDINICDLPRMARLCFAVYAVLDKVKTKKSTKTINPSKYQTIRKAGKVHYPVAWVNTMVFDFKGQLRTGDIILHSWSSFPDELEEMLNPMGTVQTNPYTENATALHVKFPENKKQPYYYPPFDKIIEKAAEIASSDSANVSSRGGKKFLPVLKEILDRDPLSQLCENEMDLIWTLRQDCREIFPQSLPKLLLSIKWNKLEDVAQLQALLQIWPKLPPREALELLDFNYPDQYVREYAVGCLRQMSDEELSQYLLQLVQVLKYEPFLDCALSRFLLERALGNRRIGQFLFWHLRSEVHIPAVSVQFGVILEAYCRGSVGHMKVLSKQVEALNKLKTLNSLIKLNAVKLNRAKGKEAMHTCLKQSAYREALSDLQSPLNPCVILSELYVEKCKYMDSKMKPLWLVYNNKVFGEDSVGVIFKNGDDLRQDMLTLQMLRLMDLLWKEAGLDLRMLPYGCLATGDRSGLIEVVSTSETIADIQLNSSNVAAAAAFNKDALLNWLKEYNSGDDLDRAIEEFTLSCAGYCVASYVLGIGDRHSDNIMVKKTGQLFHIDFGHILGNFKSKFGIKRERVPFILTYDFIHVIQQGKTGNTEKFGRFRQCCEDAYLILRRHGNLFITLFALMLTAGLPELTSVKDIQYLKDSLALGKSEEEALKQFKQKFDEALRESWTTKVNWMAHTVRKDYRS
Chain of PI3Kb (P27986 whole entry partner): as the sequence (P27986 whole entry partner) above

[5] = system: MDA-MB-231 tumor xenografts; test: Tumor xenograft growth in mice; type: in vivo; settings: intravenous injection, over 4 weeks
Experimental: (§1) The effects of Pac 1 and Pac 2 were next examined on PKR protein expression in HeLa cells using Western blot analysis. […] No reduction in normal cell viability was observed after treatment with Pac 1 or Pac 2 (FIGS. 5F and G). […] Because most of the cancer cell lines that were tested were more sensitive to Pac 1 than to Pac 2, Pac 1 was further investigated.
(§2) Analysis of in vivo tumor growth after treatment with Pac 1: For in vivo tumor studies, MDA-MB-231 or H1299 cells (˜1×10^6) were resuspended in 0.1 mL of PBS and injected subcutaneously into the flanks of female severe combined immunodeficiency mice. When the resulting tumors reached 100-150 mm^3 in volume, the mice were stratified into groups of eight animals, with each group having approximately equal mean tumor volumes, and administered intravenous injection of Pac 1. The animals were weighed weekly, and their tumor diameters were measured twice weekly. When a tumor reached 2000 mm^3 or became necrotic, the animal was killed.

H1299 tumor xenografts = test: Tumor xenograft growth in mice; type: in vivo
Experimental: as §1, §2

**Q.** Which “levels of p-4EBP1 (S65, T37, and T70), eEF2K, GSK3ab, IRS1 and Caveolin” value [1] does the source give for `O=C(N/N=C\c1c(O)ccc2ccccc12)c1cccc2cc[nH]c12` [Pac 1, N′—[(Z)-(2-Hydroxy-1-naphthyl)methylene]-1H-indole-7-carbohydrazide] here?
**A.** significantly inhibited

**Q.** What about the IC50 (PI4K2A kinase) of the same compound?
**A.** 2500 nM

**Q.** What about the “PKR and p-PKR expression” value (PKR and p-PKR; A549 and H1299 cells, 5 μM, 72 hours) of the same compound?
**A.** markedly reduced

**Q.** And the “expression of PKR and p-PKR” value (PKR and p-PKR; HeLa cells, 72 hours after treatment)?
**A.** significantly reduced

**Q.** And the “PKR, p-PKR, and PI4K2A expression” value (PKR and p-PKR; LOVO colon cancer cells, 72 hours, various doses)?
**A.** reduced PKR, p-PKR, and PI4K2A expression

**Q.** And the PKR expression (PKR and p-PKR; breast cancer cell lines, 72 hours, various doses)?
**A.** reduced PKR expression

**Q.** What about the “inhibition of PIM3/1 activity” value (PIM3) of the same compound?
**A.** markedly inhibited

**Q.** What about the “lysosomes by TEM” value ([2]; HeLa cells, 5 μM) of the same compound?
**A.** destruction of lysosomes

**Q.** And the “lysosomes and MVBs/exosomes by TEM” value ([2]; HeLaPKRkd cells)?
**A.** a lack of lysosomes but enrichment of MVBs/exosomes

**Q.** And the “numbers of acidic vesicular organelles” value [3]?
**A.** substantially decreased

**Q.** And the “PP2A activity, indicated by dissociation of the p-PP2Ac complex” value (p-4EBP1 (T70), PP2A)?
**A.** Inactivation of PP2A was observed

**Q.** And the “expression of p-4EBP1 (T70) protein” value (p-4EBP1 (T70), PP2A; 72 hours after treatment)?
**A.** reduction of expression

**Q.** What about the “amount of PKR coimmunoprecipitated with PI4K2A” value [4] of the same compound?
**A.** decreased to undetectable levels

**Q.** What about the “inhibition of kinase activity” value (PI3Ka) of the same compound?
**A.** not other kinases

**Q.** What about the “growth of HeLa cells by microscopy” value (HeLa cells) of the same compound?
**A.** suppressed the growth of HeLa cells more effectively than did treatment with Pac 2

**Q.** What about the “inhibition of kinase activity” value (PI3Kb) of the same compound?
**A.** not other kinases

**Q.** And the “growth of MDA-MB-231 tumor xenografts” value [5]?
**A.** inhibited the growth

**Q.** What about the “expression of PKR, p-PKR, and Ki-67 protein in tumors” value (H1299 tumor xenografts; H1299 tumors, immunohistochemical analysis) of the same compound?
**A.** dramatically suppressed

**Q.** What about the “growth of H1299 tumor xenografts” value (H1299 tumor xenografts; intravenous injection, over 4 weeks) of the same compound?
**A.** inhibited the growth
